Laboratory results taken from ChEMBL document CHEMBL4130617, “Prenylated 2-Phenoxychromones and Flavonoids from Epimedium brevicornum and Revised Structures of Epimedonins A and B” (J Nat Prod, 2018).

What was measured:
HL-60 [1] = assay: Growth inhibition of human HL60 cells at 40 uM after 48 hrs by MTS assay relative to control; type: functional; conditions: HL-60, 48 h, read-out: GI
SMMC-7721 [2] = assay: Growth inhibition of human SMMC7721 cells at 40 uM after 48 hrs by MTS assay relative to control; type: functional; conditions: SMMC-7721, 48 h, read-out: GI
A549 [3] = assay: Growth inhibition of human A549 cells at 40 uM after 48 hrs by MTS assay relative to control; type: functional; conditions: A549, 48 h, read-out: GI
MCF7 [4] = assay: Growth inhibition of human MCF7 cells at 40 uM after 48 hrs by MTS assay relative to control; type: functional; conditions: MCF7, 48 h, read-out: GI
SW480 [5] = assay: Growth inhibition of human SW480 cells at 40 uM after 48 hrs by MTS assay relative to control; type: functional; conditions: SW480, 48 h, read-out: GI
HL-60 [6] = assay: Cytotoxicity against human HL60 cells after 48 hrs by MTS assay; type: functional, cell-based; conditions: HL-60, 48 h
SMMC-7721 [7] = assay: Cytotoxicity against human SMMC7721 cells after 48 hrs by MTS assay; type: functional, cell-based; conditions: SMMC-7721, 48 h
A549 [8] = assay: Cytotoxicity against human A549 cells after 48 hrs by MTS assay; type: functional, cell-based; conditions: A549, 48 h
MCF7 [9] = assay: Cytotoxicity against human MCF7 cells after 48 hrs by MTS assay; type: functional, cell-based; conditions: MCF7, 48 h
SW480 [10] = assay: Cytotoxicity against human SW480 cells after 48 hrs by MTS assay; type: functional, cell-based; conditions: SW480, 48 h

Row | SMILES | inhibition of growth at 40 µM (HL-60 [1]) [%] | inhibition of growth at 40 µM (SMMC-7721 [2]) [%] | inhibition of growth at 40 µM (A549 [3]) [%] | inhibition of growth at 40 µM (MCF7 [4]) [%] | inhibition of growth at 40 µM (SW480 [5]) [%] | IC50 (HL-60 [6]) [µM] | IC50 (SMMC-7721 [7]) [µM] | IC50 (A549 [8]) [µM] | IC50 (MCF7 [9]) [µM] | IC50 (SW480 [10]) [µM]
1 | COc1cc(O)c2c(=O)cc(Oc3ccc(O)cc3)oc2c1C[C@@H](O)C(C)(C)O | > 50 | > 50 | > 50 | > 50 | > 50 | > 10 | > 10 | > 10 | > 10 | > 10
2 | C=C(C)C(O)Cc1c(O)cc(O)c2c(=O)cc(Oc3ccc(O)cc3)oc12 (stereo not given) | > 50 | > 50 | > 50 | > 50 | > 50 | > 10 | > 10 | > 10 | > 10 | > 10
3 | CC(C)=CCc1c(O)cc(O)c2c(=O)cc(Oc3ccc(O)cc3)oc12 | > 50 | > 50 | > 50 | > 50 | > 50 | > 10 | > 10 | > 10 | > 10 | > 10
4 | CC(C)=CCc1cc(Oc2cc(=O)c3c(O)cc(O)c(CC=C(C)C)c3o2)cc(CC=C(C)C)c1O | > 50 | > 50 | > 50 | > 50 | > 50 | > 10 | > 10 | > 10 | > 10 | > 10
5 | COc1ccc(-c2oc3c(c(O)cc4oc(C(C)(C)O)cc43)c(=O)c2O[C@@H]2O[C@@H](C)[C@H](O)[C@@H](O)[C@H]2O[C@@H]2O[C@@H](C)[C@H](O)[C@@H](O)[C@H]2O)cc1 | > 50 | > 50 | > 50 | > 50 | > 50 | > 10 | > 10 | > 10 | > 10 | > 10
6 | CC(C)=CCc1cc(Oc2cc(=O)c3c(O)cc(O)c(CC=C(C)C)c3o2)ccc1O | > 50 | > 50 | > 50 | > 50 | > 50 | > 10 | > 10 | > 10 | > 10 | > 10
7 | COc1cc(O)c2c(=O)cc(Oc3ccc(O)cc3)oc2c1CC=C(C)C | > 50 | > 50 | > 50 | > 50 | > 50 | > 10 | > 10 | > 10 | > 10 | > 10
8 | CC(C)=CCc1cc(-c2cc(=O)c3c(O)cc(O)c(CC=C(C)C)c3o2)cc(CC=C(C)C)c1O | > 50 | > 50 | > 50 | > 50 | > 50 | 4.3 | > 10 | 7.1 | 5.4 | 5.1
9 | CC(=O)O[C@H]1C(=O)[C@@]2(C)[C@H]([C@H](OC(=O)c3ccccc3)[C@]3(O)C[C@H](OC(=O)[C@H](O)[C@@H](NC(=O)c4ccccc4)c4ccccc4)C(C)=C1C3(C)C)[C@]1(OC(C)=O)CO[C@@H]1C[C@@H]2O [PACLITAXEL] | – | – | – | – | – | < 0.008 | < 0.008 | < 0.008 | < 0.008 | < 0.008
